Reference: patent publication US20230310554A1 (priority 2020, published 2023)
Values joined by “and” are separate entries in the source; they are usually repeats but may differ in a detail not shown here. Identical values can stand only once.

Columns and labels:
PC-12 cells = assay type: cell-based, rat; conditions: for EC50: read-out: EC50 of cyanide under existence of each antidote
[1] = test system: cyanide poisoning mouse models; design: species or system mouse (ddY); conditions: in vivo
[2] = test system: cyanide poisoning mouse models; design: species or system mouse (ddY); conditions: in vivo; remark: listed apart in the source
[3] = test system: cyanide poisoning mouse models; design: species or system mouse (ddY); conditions: in vivo; remark: listed apart in the source
[4] = test system: plasma proteins such as haptocorrin; conditions: cited from earlier work

Compound | cell viability compared with the control group to which only NaCN had been added (PC-12 cells) | mice survived [1] [%] | survival rate [2] | time required until the recovery (coma to awakening) [3] | reduction of antidotal ability by binding to plasma proteins [4] | EC50 (PC-12 cells)
C/C1=C2/[N-][C@H]([C@H](CC(N)=O)[C@@]2(C)CCC(=O)NC[C@@H](C)OP(=O)([O-])O[C@H]2[C@@H](O)[C@@H](n3cnc4cc(C)c(C)cc43)O[C@@H]2CO)[C@]2(C)N=C(/C(C)=C3N=C(/C=C4N=C1[C@@H](CCC(N)=O)C\4(C)C)[C@@H](CCC(N)=O)[C@]\3(C)CC(N)=O)[C@@H](CCC(N)=O)[C@]2(C)CC(N)=O.[Co+3].[OH-] [OHCbl, hydroxocobalamin] | high survival rate | 50 | 90% and 70% and 60% | 4.8 min and 4.6 min | 1/600 | –
metHb: methemoglobin produced by oxidizing OxyHb with sodium nitrite | significantly high survival rate | – | – | – | – | 23.3 mM and 28.8 mM and 31.1 mM and 19.1 mM
O=S([O-])([O-])=S.[Na+].[Na+] [Na2S2O3, sodium thiosulfate] | had no effects | – | – | – | – | 9.98 mM and 12.5 mM and 12.1 mM and 10.4 mM and 10.7 mM
